Laboratory results taken from US5196427A, “3-aryl-4(3H) quinazolinone CCK antagonists and pharmaceutical formulations thereof” (Eli Lilly and Company, priority 1991, dated 1993).

The compounds below were run against T1, peripheral type CCK receptors in rat pancreas (Rattus norvegicus, UniProt P30551) (assay: Binding to peripheral type CCK receptors in rat pancreas (3H-L364,718)). Conditions: rat pancreas; 10 μM; read-out: Pancreas % inhibition in binding assay.
T1 construct: from tissue; host or cells: pancreas membranes of male Sprague-Dawley rats
T1 sequence (P30551 1-444): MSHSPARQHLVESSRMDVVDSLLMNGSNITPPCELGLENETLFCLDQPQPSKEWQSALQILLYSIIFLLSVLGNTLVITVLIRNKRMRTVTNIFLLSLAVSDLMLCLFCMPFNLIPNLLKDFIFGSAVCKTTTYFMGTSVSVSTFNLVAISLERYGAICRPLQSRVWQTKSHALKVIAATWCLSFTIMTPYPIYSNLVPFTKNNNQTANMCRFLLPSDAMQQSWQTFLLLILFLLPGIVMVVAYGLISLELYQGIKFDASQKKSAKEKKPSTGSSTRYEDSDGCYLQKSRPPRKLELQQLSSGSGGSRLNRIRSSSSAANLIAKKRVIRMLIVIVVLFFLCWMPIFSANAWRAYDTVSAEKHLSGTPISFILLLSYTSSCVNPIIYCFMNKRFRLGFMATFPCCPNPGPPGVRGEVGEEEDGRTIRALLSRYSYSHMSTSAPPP
Protocol: Binding to peripheral type CCK receptors in rat pancreas was done according to the method of Chang et al. (Mol. Pharmacol. 30: 212-217, 1986) using ^3 H-L364, 718. Pancreas was obtained from male & Sprague-Dawley rats, 150-200 g, after decapitation, and dissected free from adipose and connective tissue. The tissue was homogenized in 30 volumes of 50 mM Tris buffer, pH 7.4 and centrifuged at 40,000 g for 10 min. The tissue pellet was washed by resuspension and centrifugation as described above. The final pellet was suspended in 500 volumes of assay buffer (50 mM Tris buffer, pH 7.4, 5 mM MgC2, 0.14 mg/ml bacitracin, and 5 mM dithiothreitol) to give a protein concentration of 30-60 μg/200 μl. Reagent volumes for the assay were the same as those used for CCK binding to brain membranes. […] The samples were incubated 1 hour at room temperature and then filtered as described for the CCK-brain receptor. Scintillation cocktail was added to the filters which were counted for radioactivity using a Micromedic Taurus automatic liquid scintillation counter.
Compound samples were prepared and IC-50 values were determined as described for the CCK-brain experiments. Non-specific binding was that amount left bound to the filters after adding 100 nM L-364,718.

Row | inhibition at 10 µM [%] | Structure (SMILES)
1 | -1.4 | CC(C)Oc1cccc(-n2c(CCc3c[nH]c4ccc(Br)cc34)nc3ccccc3c2=O)c1 [Example 4, 2-[2-(5-Bromoindol-3-yl)ethyl]-3-(3-isopropoxyphenyl)-4-quinazolinone]
2 | 5.3 | COc1cccc(-n2c(CCc3c[nH]c4ccc(Br)cc34)nc3ccccc3c2=O)c1 [Example 20]
3 | -14 | CCOc1cccc(-n2c(CCc3c[nH]c4ccc(Br)cc34)nc3ccccc3c2=O)c1 [Example 23]
4 | -4.5 | CCc1cccc(-n2c(CCc3c[nH]c4ccc(Br)cc34)nc3ccccc3c2=O)c1 [Example 29]
5 | -9.1 | CCc1cccc(-n2c(CCc3c[nH]c4ccc(Cl)cc34)nc3ccccc3c2=O)c1 [Example 30]
6 | 11 | CCc1cccc(-n2c(CCc3c[nH]c4ccc(OC)cc34)nc3ccccc3c2=O)c1 [Example 31]
7 | 0.3 | COc1ccc(-n2c(CCc3c[nH]c4ccc(Br)cc34)nc3ccccc3c2=O)cc1 [Example 52]

Row | Structure (SMILES) | inhibition at 10 µM [%]
8 | O=c1c2ccccc2nc(CCc2c[nH]c3ccccc23)n1-c1cccc(Br)c1 [Example 15] | -5.7
9 | O=c1c2ccccc2nc(CCc2c[nH]c3ccc(Cl)cc23)n1-c1cccc(Br)c1 [Example 16] | 2
10 | O=c1c2ccccc2nc(CCCc2c[nH]c3ccccc23)n1-c1ccccc1 [Example 62] | 11

Same assay, conditions: read-out: Pancreas % inhibition in binding assay

Row | Structure (SMILES) | inhibition at 10 µM [%]
11 | O=c1c2ccccc2nc(CCc2c[nH]c3ccccc23)n1-c1ccccc1 [Example 1, 2-[2-(3-indolyl)ethyl]-3-phenyl-4-(3H)quinazolinone] | 37
12 | O=c1c2ccccc2nc(CCc2c[nH]c3ccccc23)n1-c1cccc(F)c1 [Example 12] | 11
13 | O=c1c2ccccc2nc(CCc2c[nH]c3ccccc23)n1-c1cccc(Cl)c1 [Example 13] | 17
14 | Cc1cccc(-n2c(CCc3c[nH]c4ccccc34)nc3ccccc3c2=O)c1 [Example 14] | 0.6
15 | COc1cccc(-n2c(CCc3c[nH]c4ccccc34)nc3ccccc3c2=O)c1 [Example 17] | 16
16 | CCc1cccc(-n2c(CCc3c[nH]c4ccccc34)nc3ccccc3c2=O)c1 [Example 28] | 2.6

These compounds were tested against T2, Gastrin receptor (Cavia porcellus, UniProt H0VZC5) (assay: Gastrin binding to guinea pig stomach mucosal membranes (125I-gastrin I)). Conditions: Mean ± SEM, n = 3.
T2 construct: from tissue; host or cells: stomach fundus mucosal membranes of male Hartley guinea pigs
T2 sequence (H0VZC5 1-426): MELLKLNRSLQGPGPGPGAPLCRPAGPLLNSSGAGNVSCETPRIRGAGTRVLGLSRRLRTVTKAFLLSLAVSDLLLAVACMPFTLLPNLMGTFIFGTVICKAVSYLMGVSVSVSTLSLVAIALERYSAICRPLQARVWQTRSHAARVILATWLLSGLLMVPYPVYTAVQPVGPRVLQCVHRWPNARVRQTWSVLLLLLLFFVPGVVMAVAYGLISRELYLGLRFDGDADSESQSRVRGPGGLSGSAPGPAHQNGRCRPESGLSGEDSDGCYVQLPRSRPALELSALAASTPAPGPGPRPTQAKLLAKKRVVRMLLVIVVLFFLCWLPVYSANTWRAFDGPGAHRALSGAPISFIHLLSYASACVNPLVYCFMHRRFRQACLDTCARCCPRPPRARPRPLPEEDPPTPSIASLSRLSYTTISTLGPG
Protocol: The method used for gastrin binding to guinea pig stomach mucosal membranes was similar to that described by Takeuchi, Speir and Johnson (Am. J. Physiol. 237(3): E284-E294, 1979). Guinea pig stomach […] was obtained from male Hartley guinea pigs, 300-350 g, and the mucosa was scraped off with a glass The mucosa was homogenized in 50 mM Tris buffer, pH 7.4, containing 1 mM phenylmethanesulfonyl fluoride using a Dounce glass homogenizer, and the suspension was centrifuged at 40,000 g for 10 min. The resulting pellet was resuspended and centrifuged once more, the final pellet was then suspended in 100 ml assay buffer per 1 guinea pig stomach to give a protein concentration of 200-300 μg/200 μl. The assay buffer consisted of 50 mM Tris buffer, pH 7.4, 5 mM MgC2, 0.14 mg/ml bacitracin, and 1 μg/ml each of leupeptin, chymostatin, aprotinin and pepstatin. Reagent volumes for the assay were the same as those used for CCK binding to brain membranes. The radioactive ligand was 20 pM ^125 I-gastrin I, from DuPont NEN (NEX-176). The samples were incubated 3 hours at room temperature and filtered and counted as described for CCK binding to brain membranes. Compound samples were prepared and IC-50 values were determined as described for the CCK-brain receptor binding. Non-specific binding was determined using 100 nM gastrin I (human synthetic from Sigma Chemical Co.).

Row | IC50 [nM] | Structure (SMILES)
17 | 1100 ± 200 | CCc1cccc(-n2c(CCc3c[nH]c4ccc(Br)cc34)nc3ccccc3c2=O)c1 [Example 29]
18 | 1600 ± 100 | CCc1cccc(-n2c(CC(C)c3c[nH]c4ccc(Br)cc34)nc3ccccc3c2=O)c1 (stereo not drawn) [Example 64]

Each compound was assayed against T3, Brain CCK receptor (Mus musculus, UniProt P56481) (assay: Brain CCK receptor binding (mouse brain membranes, 125I-CCK-8 sulfate)). Conditions: mouse brain membranes; Mean ± SEM, n = 3; values without SEM n = 1; read-out: Brain IC50.
T3 construct: from tissue; host or cells: forebrain membranes of male CF-1 mice
T3 sequence (P56481 1-453): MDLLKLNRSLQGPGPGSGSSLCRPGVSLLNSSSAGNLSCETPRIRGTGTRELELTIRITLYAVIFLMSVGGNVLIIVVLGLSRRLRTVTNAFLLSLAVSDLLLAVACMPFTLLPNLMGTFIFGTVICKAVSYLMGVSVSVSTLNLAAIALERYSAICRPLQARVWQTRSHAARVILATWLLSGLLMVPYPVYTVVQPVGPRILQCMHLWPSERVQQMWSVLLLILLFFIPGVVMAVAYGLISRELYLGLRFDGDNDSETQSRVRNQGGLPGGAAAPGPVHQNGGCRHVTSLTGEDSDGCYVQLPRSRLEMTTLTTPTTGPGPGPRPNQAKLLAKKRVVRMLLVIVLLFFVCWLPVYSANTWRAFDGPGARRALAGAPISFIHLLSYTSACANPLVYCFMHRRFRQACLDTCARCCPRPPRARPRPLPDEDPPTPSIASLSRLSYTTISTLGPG
Protocol: Brain CCK receptor binding was performed using mouse brain membranes according to the method of Chang and Lotti (Proc. Natl. Acad. Sci. 83: 4923-4926, 1986). Male CF-1 mice, 23-25 g were sacrificed by cervical dislocation, the forebrain removed and placed in ice cold 50 mM Tris buffer, pH 7.4. The tissue was homogenized in 100 volumes of the Tris buffer with a Brinkman Polytron or Tekmar Tissumizer and then centrifuged at 40,000 g for 10 min. Pellets were resuspended in Tris buffer, centrifuged as above and then resuspended in 100 volumes of assay buffer, pH 6.5 (20 mM N-2-hydroxyethyl-piperazine-N'-2-ethane sulfonic acid (HEPES), 1 mM ethylene glycol bis(2-aminoethyl ether-N,N,N',N'-tetraaceticacid) (EGTA), 5 mM MgCl2, 130 mM NaCl, and 0.25 mg/ml bacitracin). The binding assay consisted of 50 μL of compound (or buffer for total binding), 50 μL of ^125 I-CCK-8 sulfate (20 pM) (Amersham IM-159), 200 μL of assay buffer and 200 μL of homogenate (80-120 μg protein). The samples were incubated at room temperature (25°) for 2 hours, and they were then filtered through GF/B glass fiber filters (soaked in wash buffer for 2 hours before use) using a 48 well Brandel cell harvester designed for receptor binding. The filters were washed twice with 3 ml of 50 mM Tris buffer, pH 7.4, containing 0.01% BSA and then counted for radioactivity in plastic tubes with a Micromedic 10/600 automatic gamma counter.
Compounds were dissolved in dimethyl sulfoxide (DMSO) at a concentration of 10 mM and then further diluted with assay buffer. […] IC-50 values of displacement curves were determined using 7 concentrations of compound and were calculated using the ALLFIT computer program of DeLean, Munson and Rodbard (Am. J. Physiol. 235: E97-E102, 1978). Non-specific binding was determined as the displacement of the radioligand by 100 nM CCK-8 sulfate.

Row | Structure (SMILES) | IC50 [nM]
19 | O=c1c2ccccc2nc(CCc2c[nH]c3ccccc23)n1-c1ccccc1 [Example 1, 2-[2-(3-indolyl)ethyl]-3-phenyl-4-(3H)quinazolinone] | 670 ± 150
20 | O=c1c2ccccc2nc(CCc2c[nH]c3ccccc23)n1-c1cccc(F)c1 [Example 12] | 730 ± 170
21 | O=c1c2ccccc2nc(CCc2c[nH]c3ccccc23)n1-c1cccc(Cl)c1 [Example 13] | 690 ± 160
22 | Cc1cccc(-n2c(CCc3c[nH]c4ccccc34)nc3ccccc3c2=O)c1 [Example 14] | 150 ± 10
23 | O=c1c2ccccc2nc(CCc2c[nH]c3ccccc23)n1-c1cccc(Br)c1 [Example 15] | 370 ± 30
24 | O=c1c2ccccc2nc(CCc2c[nH]c3ccc(Cl)cc23)n1-c1cccc(Br)c1 [Example 16] | 190
25 | COc1cccc(-n2c(CCc3c[nH]c4ccccc34)nc3ccccc3c2=O)c1 [Example 17] | 160 ± 30
26 | CCOc1cccc(-n2c(CCc3c[nH]c4ccc(Br)cc34)nc3ccccc3c2=O)c1 [Example 23] | 34 ± 7
27 | CCc1cccc(-n2c(CCc3c[nH]c4ccccc34)nc3ccccc3c2=O)c1 [Example 28] | 72 ± 1
28 | CCc1cccc(-n2c(CCc3c[nH]c4ccc(Br)cc34)nc3ccccc3c2=O)c1 [Example 29] | 46 ± 10
29 | CCc1cccc(-n2c(CCc3c[nH]c4ccc(Cl)cc34)nc3ccccc3c2=O)c1 [Example 30] | 30
30 | CCc1cccc(-n2c(CCc3c[nH]c4ccc(OC)cc34)nc3ccccc3c2=O)c1 [Example 31] | 22
31 | COc1ccc(-n2c(CCc3c[nH]c4ccc(Br)cc34)nc3ccccc3c2=O)cc1 [Example 52] | 31 ± 6
32 | CCc1cccc(-n2c(CC(C)c3c[nH]c4ccc(Br)cc34)nc3ccccc3c2=O)c1 (stereo not drawn) [Example 64] | 100 ± 10

Same assay, conditions: read-out: Brain % inhibition in binding assay, mouse brain membranes; 10 μM

Row | Structure (SMILES) | inhibition at 10 µM [%]
33 | O=c1c2ccccc2nc(CCCc2c[nH]c3ccccc23)n1-c1ccccc1 [Example 62] | 20
